Reference: ChEMBL document CHEMBL1201862, “PubChem BioAssay data set” (2004)
Each block holds one compound with its values, some of them ahead of it. The source made the active and inactive calls.

Key:
[1] = target: Alkaline phosphatase, placental type (Homo sapiens, UniProt P05187); experiment: human placental alkaline phosphatase inhibition – biochemical, luminescence, confirmation (AID 1512); format: functional
[2] = target: T1, Alkaline phosphatase, tissue-nonspecific isozyme (Homo sapiens, UniProt P05186); experiment: potency against alkaline phosphatase TNAP – biochemical, luminescent, dose response, SAR follow-up (AID 1056)
T1 sequence (P05186 whole entry): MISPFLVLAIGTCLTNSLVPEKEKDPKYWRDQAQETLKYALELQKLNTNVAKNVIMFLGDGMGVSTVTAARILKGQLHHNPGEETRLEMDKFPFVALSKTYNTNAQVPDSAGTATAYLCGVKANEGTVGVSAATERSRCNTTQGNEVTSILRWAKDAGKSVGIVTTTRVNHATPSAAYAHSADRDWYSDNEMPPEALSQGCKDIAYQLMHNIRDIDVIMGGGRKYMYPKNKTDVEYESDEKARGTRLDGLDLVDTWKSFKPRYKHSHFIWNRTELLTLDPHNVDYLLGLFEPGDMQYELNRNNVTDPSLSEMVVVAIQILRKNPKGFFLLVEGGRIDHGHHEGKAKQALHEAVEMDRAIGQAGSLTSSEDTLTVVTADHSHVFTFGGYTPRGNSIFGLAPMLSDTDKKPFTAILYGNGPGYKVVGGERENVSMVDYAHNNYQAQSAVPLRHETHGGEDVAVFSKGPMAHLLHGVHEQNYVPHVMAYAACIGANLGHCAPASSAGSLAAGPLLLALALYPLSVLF

[3] = target: Glyceraldehyde-3-phosphate dehydrogenase (Homo sapiens, UniProt P04406)
[4] = target: 72 kDa type IV collagenase (Homo sapiens, UniProt P08253); experiment: Dose Response validation of uHTS RPN11 inhibitor hits using a MMP-2 Fluorescence assay.; format: functional
72 kDa type IV collagenase, sequence (P08253 whole entry): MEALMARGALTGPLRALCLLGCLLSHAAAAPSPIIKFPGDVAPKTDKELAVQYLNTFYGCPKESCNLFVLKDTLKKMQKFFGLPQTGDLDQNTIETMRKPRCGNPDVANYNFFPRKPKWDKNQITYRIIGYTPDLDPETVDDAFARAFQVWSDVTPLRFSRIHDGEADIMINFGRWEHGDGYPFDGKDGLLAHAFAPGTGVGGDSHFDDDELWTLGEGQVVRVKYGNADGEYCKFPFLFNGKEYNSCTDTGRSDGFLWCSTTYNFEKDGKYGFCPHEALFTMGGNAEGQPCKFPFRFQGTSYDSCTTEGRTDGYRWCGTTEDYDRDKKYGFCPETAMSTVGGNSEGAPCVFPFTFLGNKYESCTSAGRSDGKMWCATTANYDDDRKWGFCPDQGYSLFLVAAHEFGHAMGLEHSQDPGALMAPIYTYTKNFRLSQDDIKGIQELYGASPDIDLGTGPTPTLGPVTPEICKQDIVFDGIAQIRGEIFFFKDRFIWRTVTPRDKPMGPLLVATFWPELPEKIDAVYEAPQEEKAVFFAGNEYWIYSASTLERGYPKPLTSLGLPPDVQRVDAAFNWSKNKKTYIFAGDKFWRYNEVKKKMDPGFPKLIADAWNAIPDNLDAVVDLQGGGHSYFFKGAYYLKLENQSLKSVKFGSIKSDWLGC

[5] = target: 26S proteasome non-ATPase regulatory subunit 14 (Homo sapiens, UniProt O00487); experiment: inhibition of proteasome subunit RPN11 – biochemical, fluorescence polarization, uHTS hits, confirmation (AID 602368); format: functional
Prothrombin = Prothrombin (Bos taurus, UniProt P00735); experiment: thrombin protease inhibitors – biochemical, fluorescence polarization, uHTS hits, dose response (AID 602369); format: functional
[6] = target: Dual specificity tyrosine-phosphorylation-regulated kinase 1A (Rattus norvegicus, UniProt Q63470); format: biochemical, Homo sapiens
[7] = target: T2, Histone-lysine N-methyltransferase NSD2 (Homo sapiens, UniProt O96028); format: biochemical
T2 sequence (O96028 whole entry): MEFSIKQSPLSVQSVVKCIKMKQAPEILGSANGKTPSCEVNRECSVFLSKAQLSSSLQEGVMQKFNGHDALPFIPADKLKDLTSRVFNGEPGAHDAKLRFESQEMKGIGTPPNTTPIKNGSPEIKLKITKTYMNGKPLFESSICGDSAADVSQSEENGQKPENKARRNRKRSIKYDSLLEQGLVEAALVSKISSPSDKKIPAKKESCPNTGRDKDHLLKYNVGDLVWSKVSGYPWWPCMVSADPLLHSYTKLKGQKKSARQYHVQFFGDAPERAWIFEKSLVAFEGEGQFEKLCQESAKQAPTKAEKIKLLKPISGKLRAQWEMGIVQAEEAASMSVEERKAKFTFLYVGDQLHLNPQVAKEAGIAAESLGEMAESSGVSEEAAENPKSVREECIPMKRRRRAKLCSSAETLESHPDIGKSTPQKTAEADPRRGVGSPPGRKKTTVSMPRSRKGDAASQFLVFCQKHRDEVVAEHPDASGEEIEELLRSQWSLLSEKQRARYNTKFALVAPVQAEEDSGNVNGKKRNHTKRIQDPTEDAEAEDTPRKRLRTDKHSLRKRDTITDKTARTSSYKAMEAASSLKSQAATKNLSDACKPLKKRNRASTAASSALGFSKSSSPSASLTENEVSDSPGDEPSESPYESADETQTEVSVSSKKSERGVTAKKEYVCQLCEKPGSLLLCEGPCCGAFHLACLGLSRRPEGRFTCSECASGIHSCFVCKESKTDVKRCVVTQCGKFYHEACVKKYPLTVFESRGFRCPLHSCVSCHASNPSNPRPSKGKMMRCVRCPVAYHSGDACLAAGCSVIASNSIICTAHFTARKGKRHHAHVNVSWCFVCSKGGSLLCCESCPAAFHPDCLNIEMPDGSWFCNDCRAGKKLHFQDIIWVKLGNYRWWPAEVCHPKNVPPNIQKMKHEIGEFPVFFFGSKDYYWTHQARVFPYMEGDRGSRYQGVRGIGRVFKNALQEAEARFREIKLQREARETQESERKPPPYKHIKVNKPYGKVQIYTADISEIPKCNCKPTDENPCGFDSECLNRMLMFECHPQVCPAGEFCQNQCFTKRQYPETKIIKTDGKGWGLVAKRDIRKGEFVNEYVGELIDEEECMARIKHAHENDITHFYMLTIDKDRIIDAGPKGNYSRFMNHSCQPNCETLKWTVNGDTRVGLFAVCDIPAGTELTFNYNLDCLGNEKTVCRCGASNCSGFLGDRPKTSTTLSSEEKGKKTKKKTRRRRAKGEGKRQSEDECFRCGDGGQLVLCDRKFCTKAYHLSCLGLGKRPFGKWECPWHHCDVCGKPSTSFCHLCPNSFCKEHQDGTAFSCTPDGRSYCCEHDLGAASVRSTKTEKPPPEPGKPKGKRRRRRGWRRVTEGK

Albumin = Albumin (Bos taurus, UniProt P02769); experiment: Counterscreen for inhibitors of T-cell receptor (TCR)-CD3 interaction: Fluorescence-based biochemical high throughput dose response assay to identify inhibitors of T-cell receptor (TCR)-CD3 interaction using a TAMRA-labeled BSA probe.; format: functional
Large T antigen = Large T antigen (Simian virus 40, UniProt P03070); format: functional, Betapolyomavirus macacae;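 further: Confirmatory-stage PubChem screen for compounds that inhibit SV40 T antigen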
Large T antigen, sequence (P03070 whole entry): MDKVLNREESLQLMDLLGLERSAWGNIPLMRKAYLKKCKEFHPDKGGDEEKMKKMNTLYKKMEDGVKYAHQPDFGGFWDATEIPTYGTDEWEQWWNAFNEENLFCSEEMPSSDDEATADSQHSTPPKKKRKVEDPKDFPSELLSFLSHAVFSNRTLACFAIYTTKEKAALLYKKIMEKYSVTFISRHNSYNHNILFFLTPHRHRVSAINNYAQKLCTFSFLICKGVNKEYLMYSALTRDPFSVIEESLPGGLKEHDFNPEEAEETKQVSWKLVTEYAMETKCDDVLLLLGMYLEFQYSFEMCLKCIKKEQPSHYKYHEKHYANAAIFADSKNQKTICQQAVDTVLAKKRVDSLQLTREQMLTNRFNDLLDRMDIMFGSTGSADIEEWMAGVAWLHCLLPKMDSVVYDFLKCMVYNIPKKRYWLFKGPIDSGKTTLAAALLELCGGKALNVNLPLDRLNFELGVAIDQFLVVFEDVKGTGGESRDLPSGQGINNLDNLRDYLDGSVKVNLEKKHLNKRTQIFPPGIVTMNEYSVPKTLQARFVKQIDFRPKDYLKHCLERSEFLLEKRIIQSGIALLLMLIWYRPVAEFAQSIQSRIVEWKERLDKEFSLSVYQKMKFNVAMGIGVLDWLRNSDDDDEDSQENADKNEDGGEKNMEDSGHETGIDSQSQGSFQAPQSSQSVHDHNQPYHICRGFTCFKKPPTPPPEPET

[8] = target: Intestinal-type alkaline phosphatase (Homo sapiens, UniProt P09923); experiment: inhibition of human intestinal alkaline phosphatase – biochemical, dose response (AID 488876); format: functional
Intestinal-type alkaline phosphatase (Homo sapiens, UniProt P09923), sequence (P09923 whole entry): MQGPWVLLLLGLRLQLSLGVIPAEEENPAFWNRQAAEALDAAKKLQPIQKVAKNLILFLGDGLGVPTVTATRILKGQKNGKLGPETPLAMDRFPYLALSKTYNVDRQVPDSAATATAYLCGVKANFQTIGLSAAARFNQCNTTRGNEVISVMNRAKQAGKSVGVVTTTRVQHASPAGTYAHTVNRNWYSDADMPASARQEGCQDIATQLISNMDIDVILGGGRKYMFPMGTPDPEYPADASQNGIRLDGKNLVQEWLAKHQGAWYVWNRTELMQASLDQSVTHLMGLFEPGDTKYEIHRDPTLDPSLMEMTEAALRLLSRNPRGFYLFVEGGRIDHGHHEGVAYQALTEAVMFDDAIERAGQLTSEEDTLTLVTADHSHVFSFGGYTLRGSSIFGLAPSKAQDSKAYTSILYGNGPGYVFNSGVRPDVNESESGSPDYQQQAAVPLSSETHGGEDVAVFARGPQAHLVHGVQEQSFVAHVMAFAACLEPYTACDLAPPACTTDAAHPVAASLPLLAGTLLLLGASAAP

[9] = target: Intestinal-type alkaline phosphatase (Mus musculus, UniProt P24822); experiment: PubChem AID 488785; format: functional
Intestinal-type alkaline phosphatase (Mus musculus, UniProt P24822), sequence (P24822 whole entry): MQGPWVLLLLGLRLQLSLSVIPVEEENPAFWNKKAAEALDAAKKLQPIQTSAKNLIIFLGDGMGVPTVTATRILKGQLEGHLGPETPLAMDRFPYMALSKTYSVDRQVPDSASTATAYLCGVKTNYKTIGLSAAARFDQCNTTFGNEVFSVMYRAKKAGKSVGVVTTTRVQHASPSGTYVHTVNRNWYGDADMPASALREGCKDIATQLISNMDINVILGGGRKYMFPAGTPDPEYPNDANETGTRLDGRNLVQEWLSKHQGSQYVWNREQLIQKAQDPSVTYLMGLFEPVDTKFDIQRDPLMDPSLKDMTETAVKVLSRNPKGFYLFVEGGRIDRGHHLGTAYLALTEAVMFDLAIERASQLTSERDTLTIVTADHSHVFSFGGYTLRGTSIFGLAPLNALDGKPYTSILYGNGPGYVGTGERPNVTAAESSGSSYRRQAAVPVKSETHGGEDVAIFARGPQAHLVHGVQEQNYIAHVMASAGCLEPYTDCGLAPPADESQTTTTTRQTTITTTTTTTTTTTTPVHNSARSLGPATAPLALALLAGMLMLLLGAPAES

[10] = target: T1, Alkaline phosphatase, tissue-nonspecific isozyme; experiment: TNAP enzyme inhibition by screening hits, dose response, selectivity assay for mouse IAP inhibitor project, biochemical, human TNAP, uHTS hits (AID 488906); format: functional
[11] = target: T3, Delta-type opioid receptor (Homo sapiens, UniProt P41143); experiment: HTS Image-Based Screen for Agonists of the DOR Receptor. [Related pubchem assays (depositor defined):AID1777, AID1786, AID2133]; format: functional
T3 sequence (P41143 whole entry): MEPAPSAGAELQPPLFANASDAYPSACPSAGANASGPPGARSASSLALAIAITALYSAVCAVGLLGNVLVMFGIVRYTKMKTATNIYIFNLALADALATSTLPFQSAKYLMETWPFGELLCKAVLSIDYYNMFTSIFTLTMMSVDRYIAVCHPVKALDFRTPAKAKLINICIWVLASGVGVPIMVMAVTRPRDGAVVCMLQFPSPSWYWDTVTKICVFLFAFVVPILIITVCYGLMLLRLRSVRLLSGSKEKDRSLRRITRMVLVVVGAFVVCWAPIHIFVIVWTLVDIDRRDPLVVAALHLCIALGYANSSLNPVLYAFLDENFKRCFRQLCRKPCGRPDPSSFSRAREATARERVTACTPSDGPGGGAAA

Mu-type opioid receptor = Mu-type opioid receptor (Homo sapiens, UniProt P35372); experiment: HTS Image-Based Screen for Agonists of the MOR Receptor. [Related pubchem assays (depositor defined):AID1777, AID1785, AID1786, AID2133]; format: functional;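 further: imaging of beta-arrestin GFP recruitment into spots after receptor activation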
[12] = target: T4, Kappa-type opioid receptor (Homo sapiens, UniProt P41145); format: functional
T4 sequence (P41145 whole entry): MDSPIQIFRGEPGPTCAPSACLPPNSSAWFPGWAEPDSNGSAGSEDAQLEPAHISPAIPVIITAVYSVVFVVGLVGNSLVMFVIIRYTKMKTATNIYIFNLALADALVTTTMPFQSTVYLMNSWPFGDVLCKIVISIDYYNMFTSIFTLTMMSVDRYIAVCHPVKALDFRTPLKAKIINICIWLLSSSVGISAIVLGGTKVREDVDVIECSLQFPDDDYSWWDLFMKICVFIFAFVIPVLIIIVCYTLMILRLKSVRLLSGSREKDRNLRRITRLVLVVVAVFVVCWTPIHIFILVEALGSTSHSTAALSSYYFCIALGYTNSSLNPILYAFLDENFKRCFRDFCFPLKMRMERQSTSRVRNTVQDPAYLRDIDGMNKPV

[13] = target: T3, Delta-type opioid receptor; experiment: HTS Image-Based Screen for Antagonists of the DOR Receptor. [Related pubchem assays (depositor defined):AID1777, AID1785, AID1786, AID2133]; format: functional
[14] = target: T4, Kappa-type opioid receptor; format: functional; remark: listed apart in the source
Beta-galactosidase = Beta-galactosidase (Escherichia coli, UniProt Q8VNN2); format: functional
Beta-galactosidase, sequence (Q8VNN2 whole entry): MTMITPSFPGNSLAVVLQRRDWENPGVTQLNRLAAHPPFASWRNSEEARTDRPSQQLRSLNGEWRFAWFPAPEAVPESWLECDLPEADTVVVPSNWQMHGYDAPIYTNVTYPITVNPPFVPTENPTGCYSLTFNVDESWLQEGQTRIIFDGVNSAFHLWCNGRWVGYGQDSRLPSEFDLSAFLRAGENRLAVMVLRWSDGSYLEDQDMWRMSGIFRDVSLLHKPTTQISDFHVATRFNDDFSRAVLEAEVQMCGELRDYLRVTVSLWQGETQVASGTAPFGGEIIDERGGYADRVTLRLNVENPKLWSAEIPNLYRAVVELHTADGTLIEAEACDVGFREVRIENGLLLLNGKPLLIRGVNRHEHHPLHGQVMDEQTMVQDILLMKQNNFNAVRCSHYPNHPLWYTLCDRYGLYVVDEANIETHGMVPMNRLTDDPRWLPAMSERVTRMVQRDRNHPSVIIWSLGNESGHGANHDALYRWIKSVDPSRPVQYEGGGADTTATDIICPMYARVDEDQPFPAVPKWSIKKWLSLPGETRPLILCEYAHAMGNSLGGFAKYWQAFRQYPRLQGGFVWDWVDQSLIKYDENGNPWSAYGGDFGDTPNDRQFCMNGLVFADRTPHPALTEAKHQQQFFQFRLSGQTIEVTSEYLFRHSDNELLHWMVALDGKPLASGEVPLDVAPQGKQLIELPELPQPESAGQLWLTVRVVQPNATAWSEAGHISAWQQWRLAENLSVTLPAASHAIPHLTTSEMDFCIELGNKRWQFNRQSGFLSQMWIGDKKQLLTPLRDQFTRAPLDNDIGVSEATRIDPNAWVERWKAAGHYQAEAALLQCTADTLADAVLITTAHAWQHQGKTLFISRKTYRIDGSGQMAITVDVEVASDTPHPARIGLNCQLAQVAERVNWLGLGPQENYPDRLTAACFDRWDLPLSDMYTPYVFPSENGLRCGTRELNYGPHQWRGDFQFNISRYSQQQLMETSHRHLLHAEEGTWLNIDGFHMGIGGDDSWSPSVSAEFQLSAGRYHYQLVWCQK

Cytochrome P450 2C9 = Cytochrome P450 2C9 (Homo sapiens, UniProt P11712)
Cytochrome P450 3A4 = Cytochrome P450 3A4 (Homo sapiens, UniProt P08684);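 further: CYP3A4 tested as one member of a cytochrome P450 panel screen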
Cytochrome P450 3A4, sequence (P08684 whole entry): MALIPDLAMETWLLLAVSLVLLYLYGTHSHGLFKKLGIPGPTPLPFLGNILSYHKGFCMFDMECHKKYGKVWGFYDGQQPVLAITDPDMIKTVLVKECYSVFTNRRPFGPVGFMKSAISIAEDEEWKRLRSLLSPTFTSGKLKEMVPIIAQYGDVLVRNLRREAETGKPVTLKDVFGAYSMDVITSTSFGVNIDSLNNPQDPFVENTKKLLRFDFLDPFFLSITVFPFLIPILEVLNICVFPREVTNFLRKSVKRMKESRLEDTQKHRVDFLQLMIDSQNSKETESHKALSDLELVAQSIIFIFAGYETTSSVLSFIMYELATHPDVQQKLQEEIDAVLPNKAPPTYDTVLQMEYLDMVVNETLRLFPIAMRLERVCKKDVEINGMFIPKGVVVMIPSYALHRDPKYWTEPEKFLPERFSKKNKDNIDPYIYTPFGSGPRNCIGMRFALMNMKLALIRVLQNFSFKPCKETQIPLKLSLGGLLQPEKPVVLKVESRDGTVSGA

Structure (SMILES): COc1ccc2c3c([nH]c2c1)C(C)NCC3 (configuration not stated)
IC50 [4]: > 100 µM (inactive) | IC50 [5]: 17.9 µM (active) | IC50 (Prothrombin): 13.7 µM (active) | AC50 [6]: 2.99 µM (active)

Structure (SMILES): O=C(Cc1nnc(NC(=O)c2ccccc2)s1)N/N=C\c1ccc(O)c(O)c1
AC50 [7]: 5.23 µM (active) | IC50 (Albumin): > 94.1 µM (inactive) | IC50 (Large T antigen): 20.8 µM (active) | IC50 [8]: > 100 µM (inactive) | IC50 [9]: 24.6 µM (active) | IC50 [10]: > 100 µM (inactive)

Structure (SMILES): CC(=O)N1N=C(c2cccs2)CC1c1cccc([N+](=O)[O-])c1 (configuration not stated)
EC50 [11]: > 32 µM (inactive) | EC50 (Mu-type opioid receptor): > 32 µM (inactive) | IC50 [12]: 14.4 µM (active) | IC50 [13]: > 32 µM (inactive) | IC50 [14]: > 32 µM | EC50 (Beta-galactosidase): 20.4 µM (active)

Structure (SMILES): CC(C)(C)C1CCC(OCC(O)CN2CCN(c3ccccc3)CC2)CC1.Cl (configuration not stated)
AC50 (Cytochrome P450 3A4): inconclusive

Second part, the compound after the results:

IC50 [1]: > 100 µM (inactive) | IC50 [2]: 4.88 µM (active) | IC50 [3]: > 100 µM (not active)
Structure (SMILES): COC(=O)c1ccccc1NC(=O)CSc1nnc(-c2ccccc2Cl)[nH]1

AC50 (Cytochrome P450 2C9): 0.355 µM (inconclusive) | AC50 (Cytochrome P450 3A4): inconclusive
Structure (SMILES): CCOC(=O)c1c(C)nc2sc3c(=O)n(-c4ccc(C)cc4)cnc3c2c1-c1ccc(OC)cc1
